Measurements taken from patent US20080269241A1, “BICYCLIC AMINOPROPYL TETRAHYDRO-PYRAZOLO-PYRIDINE MODULATORS OF CATHEPSIN S” (priority 2007, published 2008).
Like-named read-outs stand apart in the source and are kept apart here.

Biological target: T1, human cathepsin S (CatS) (Homo sapiens, UniProt P25774)
T1 construct: made in house; host or cells: baculovirus system (insect cells)
Experiment: Recombinant human cathepsin S (CatS) fluorogenic substrate inhibition assay
Format: biochemical
Description: Recombinant human cathepsin S (CatS) was expressed in the baculovirus system and purified in one step with a thiopropyl-sepharose column. […] The assay is run in 150 mM sodium acetate pH 5.0 containing 1.5 mM DTT and 150 mM NaCl. […] Measurements are taken every min for 20 min. The rate is calculated from the slope of the increase in fluorescence and the percent inhibition is calculated from this.

[1] = recombinant human CatS, 10 μM Z-Valine-Valine-Arginine-AMC, pH 5.0, average of results obtained, read-out: CatS IC50

T1 sequence (P25774 115-331): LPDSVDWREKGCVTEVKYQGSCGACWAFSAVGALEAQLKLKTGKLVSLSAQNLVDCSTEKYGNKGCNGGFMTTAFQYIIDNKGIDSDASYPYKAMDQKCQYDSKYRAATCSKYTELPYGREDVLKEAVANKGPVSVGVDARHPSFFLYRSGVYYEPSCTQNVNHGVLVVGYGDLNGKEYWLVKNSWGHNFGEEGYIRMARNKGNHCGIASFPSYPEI

IC50 [1] [nM] | SMILES | IC50 [nM]
200 | CSCC(=O)NCc1cc(-c2nn(CCCN3CCC(N4CCCC4=O)CC3)c3c2CN(S(C)(=O)=O)CC3)ccc1C(F)(F)F [Example 125, N-[5-(5-Methanesulfonyl-1-{3-[4-(2-oxo-pyrrolidin-1-yl)-piperidin-1-yl]-propyl}-4,5,6,7-tetrahydro-1H-pyrazolo[4,3-c]pyridin-3-yl)-2-trifluoromethyl-benzyl]-2-methylsulfanyl-acetamide] | 
210 | CS(=O)(=O)N1CCc2c(c(-c3ccc(C(F)(F)F)c(CNC(=O)c4cccnc4)c3)nn2CC(O)CN2CCC(N3CCCC3=O)CC2)C1 (centres unmarked) [Example 126, N-[5-(1-{2-Hydroxy-3-[4-(2-oxo-pyrrolidin-1-yl)-piperidin-1-yl]-propyl}-5-methanesulfonyl-4,5,6,7-tetrahydro-1H-pyrazolo[4,3-c]pyridin-3-yl)-2-trifluoromethyl-benzyl]-nicotinamide] | 
220 | CC(C)(C)OC(=O)N1CCC(C(=O)NCc2cc(-c3nn(CC(O)CN4CCC(N5CCCC5=O)CC4)c4c3CN(S(C)(=O)=O)CC4)ccc2C(F)(F)F)CC1 (centres unmarked) [Example 127, 4-[5-(1-{2-Hydroxy-3-[4-(2-oxo-pyrrolidin-1-yl)-piperidin-1-yl]-propyl}-5-methanesulfonyl-4,5,6,7-tetrahydro-1H-pyrazolo[4,3-c]pyridin-3-yl)-2-trifluoromethyl-benzylcarbamoyl]-piperidine-1-carboxylic acid tert-butyl ester] | 
240 | CS(=O)(=O)N1CCc2c(c(-c3ccc(C(F)(F)F)c(CNC(=O)c4ccncc4)c3)nn2CC(O)CN2CCC(N3CCCC3=O)CC2)C1 (centres unmarked) [Example 128, N-[5-(1-{2-Hydroxy-3-[4-(2-oxo-pyrrolidin-1-yl)-piperidin-1-yl]-propyl}-5-methanesulfonyl-4,5,6,7-tetrahydro-1H-pyrazolo[4,3-c]pyridin-3-yl)-2-trifluoromethyl-benzyl]-isonicotinamide] | 
250 | CC(=O)Nc1cc(C(=O)NCc2cc(-c3nn(CC(O)CN4CCC(N5CCCC5=O)CC4)c4c3CN(S(C)(=O)=O)CC4)ccc2C(F)(F)F)ccn1 (centres unmarked) [Example 129, 2-Acetylamino-N-[5-(1-{2-hydroxy-3-[4-(2-oxo-pyrrolidin-1-yl)-piperidin-1-yl]-propyl}-5-methanesulfonyl-4,5,6,7-tetrahydro-1H-pyrazolo[4,3-c]pyridin-3-yl)-2-trifluoromethyl-benzyl]-isonicotinamide] | 
270 | CS(=O)(=O)N1CCc2c(c(-c3ccc(C(F)(F)F)c(CNC(=O)C4CCCCCC4)c3)nn2CC(O)CN2CCC(N3CCCC3=O)CC2)C1 (centres unmarked) [Example 130, Cycloheptanecarboxylic acid 5-(1-{2-hydroxy-3-[4-(2-oxo-pyrrolidin-1-yl)-piperidin-1-yl]-propyl}-5-methanesulfonyl-4,5,6,7-tetrahydro-1H-pyrazolo[4,3-c]pyridin-3-yl)-2-trifluoromethyl-benzylamide] | 
270 | CC(O)CC(=O)NCc1cc(-c2nn(CCCN3CCC(N4CCCC4=O)CC3)c3c2CN(S(C)(=O)=O)CC3)ccc1C(F)(F)F (centres unmarked) [Example 131, 3-Hydroxy-N-[5-(5-methanesulfonyl-1-{3-[4-(2-oxo-pyrrolidin-1-yl)-piperidin-1-yl]-propyl}-4,5,6,7-tetrahydro-1H-pyrazolo[4,3-c]pyridin-3-yl)-2-trifluoromethyl-benzyl]-butyramide] | 
340 | CS(=O)(=O)N1CCc2c(c(-c3ccc(C(F)(F)F)c(CNC(=O)c4ccc(N5CCOCC5)nc4)c3)nn2CC(O)CN2CCC(N3CCCC3=O)CC2)C1 (centres unmarked) [Example 132, N-[5-(1-{2-Hydroxy-3-[4-(2-oxo-pyrrolidin-1-yl)-piperidin-1-yl]-propyl}-5-methanesulfonyl-4,5,6,7-tetrahydro-1H-pyrazolo[4,3-c]pyridin-3-yl)-2-trifluoromethyl-benzyl]-6-morpholin-4-yl-nicotinamide] | 
380 | Cn1cncc1C(=O)NCc1cc(-c2nn(CC(O)CN3CCC(N4CCCC4=O)CC3)c3c2CN(S(C)(=O)=O)CC3)ccc1C(F)(F)F (centres unmarked) [Example 133, 3-Methyl-3H-imidazole-4-carboxylic acid 5-(1-{2-hydroxy-3-[4-(2-oxo-pyrrolidin-1-yl)-piperidin-1-yl]-propyl}-5-methanesulfonyl-4,5,6,7-tetrahydro-1H-pyrazolo[4,3-c]pyridin-3-yl)-2-trifluoromethyl-benzylamide] | 
380 | CS(=O)(=O)N1CCc2c(c(-c3ccc(C(F)(F)F)c(CNC(=O)c4cncs4)c3)nn2CC(O)CN2CCC(N3CCCC3=O)CC2)C1 (centres unmarked) [Example 134, Thiazole-5-carboxylic acid 5-(1-{2-hydroxy-3-[4-(2-oxo-pyrrolidin-1-yl)-piperidin-1-yl]-propyl}-5-methanesulfonyl-4,5,6,7-tetrahydro-1H-pyrazolo[4,3-c]pyridin-3-yl)-2-trifluoromethyl-benzylamide] | 
410 | CS(=O)(=O)N1CCc2c(c(-c3ccc(C(F)(F)F)c(CNC(=O)CN4CCCCC4)c3)nn2CCCN2CCC(N3CCCC3=O)CC2)C1 [Example 135, N-[5-(5-Methanesulfonyl-1-{3-[4-(2-oxo-pyrrolidin-1-yl)-piperidin-1-yl]-propyl}-4,5,6,7-tetrahydro-1H-pyrazolo[4,3-c]pyridin-3-yl)-2-trifluoromethyl-benzyl]-2-piperidin-1-yl-acetamide] | 
410 | Cc1csc(C(=O)NCc2cc(-c3nn(CC(O)CN4CCC(N5CCCC5=O)CC4)c4c3CN(S(C)(=O)=O)CC4)ccc2C(F)(F)F)c1Cl (centres unmarked) [Example 136, 3-Chloro-4-methyl-thiophene-2-carboxylic acid 5-(1-{2-hydroxy-3-[4-(2-oxo-pyrrolidin-1-yl)-piperidin-1-yl]-propyl}-5-methanesulfonyl-4,5,6,7-tetrahydro-1H-pyrazolo[4,3-c]pyridin-3-yl)-2-trifluoromethyl-benzylamide] | 
410 | Cc1ncsc1C(=O)NCc1cc(-c2nn(CC(O)CN3CCC(N4CCCC4=O)CC3)c3c2CN(S(C)(=O)=O)CC3)ccc1C(F)(F)F (centres unmarked) [Example 137, 4-Methyl-thiazole-5-carboxylic acid 5-(1-{2-hydroxy-3-[4-(2-oxo-pyrrolidin-1-yl)-piperidin-1-yl]-propyl}-5-methanesulfonyl-4,5,6,7-tetrahydro-1H-pyrazolo[4,3-c]pyridin-3-yl)-2-trifluoromethyl-benzylamide] | 
430 | CCSC(=O)NCc1cc(-c2nn(CCCN3CCC(N4CCCC4=O)CC3)c3c2CN(S(C)(=O)=O)CC3)ccc1C(F)(F)F [Example 138, [5-(5-Methanesulfonyl-1-{3-[4-(2-oxo-pyrrolidin-1-yl)-piperidin-1-yl]-propyl}-4,5,6,7-tetrahydro-1H-pyrazolo[4,3-c]pyridin-3-yl)-2-trifluoromethyl-benzyl]-thiocarbamic acid S-ethyl ester] | 
490 | CS(=O)(=O)N1CCc2c(c(-c3ccc(C(F)(F)F)c(CNC(=O)c4ccc5nccnc5c4)c3)nn2CC(O)CN2CCC(N3CCCC3=O)CC2)C1 (centres unmarked) [Example 139, Quinoxaline-6-carboxylic acid 5-(1-{2-hydroxy-3-[4-(2-oxo-pyrrolidin-1-yl)-piperidin-1-yl]-propyl}-5-methanesulfonyl-4,5,6,7-tetrahydro-1H-pyrazolo[4,3-c]pyridin-3-yl)-2-trifluoromethyl-benzylamide] | 
100 | CC(=O)NCc1cc(-c2nn(CC(O)CN3CCC(n4c(=O)n(C)c5ccc(N(C)C)nc54)CC3)c3c2CN(S(C)(=O)=O)CC3)ccc1C(F)(F)F (centres unmarked) [Example 143, N-[5-(1-{3-[4-(5-Dimethylamino-1-methyl-2-oxo-1,2-dihydro-imidazo[4,5-b]pyridin-3-yl)-piperidin-1-yl]-2-hydroxy-propyl}-5-methanesulfonyl-4,5,6,7-tetrahydro-1H-pyrazolo[4,3-c]pyridin-3-yl)-2-trifluoromethyl-benzyl]-acetamide] | 
 | CN(C)C(=O)NCc1cc(-c2nn(CC(O)CN3CCC(n4c(=O)n(C)c5ccc(N(C)C)nc54)CC3)c3c2CN(S(C)(=O)=O)CC3)ccc1C(F)(F)F (centres unmarked) [Example 147, 2-Dimethylamino-N-[5-(1-{3-[4-(5-Dimethylamino-1-methyl-2-oxo-1,2-dihydro-imidazo[4,5-b]pyridin-3-yl)-piperidin-1-yl]-2-hydroxy-propyl}-5-methanesulfonyl-4,5,6,7-tetrahydro-1H-pyrazolo[4,3-c]pyridin-3-yl)-2-trifluoromethyl-benzyl]-1,1-dimethyl-urea] | 140
250 | CN(C)c1ccc2c(n1)n(C1CCN(CC(O)Cn3nc(-c4ccc(C(F)(F)F)c(CNC(=O)CO)c4)c4c3CCN(S(C)(=O)=O)C4)CC1)c(=O)n2C (centres unmarked) [Example 152, 2-Hydroxy-N-[5-(1-{3-[4-(5-Dimethylamino-1-methyl-2-oxo-1,2-dihydro-imidazo[4,5-b]pyridin-3-yl)-piperidin-1-yl]-2-hydroxy-propyl}-5-methanesulfonyl-4,5,6,7-tetrahydro-1H-pyrazolo[4,3-c]pyridin-3-yl)-2-trifluoromethyl-benzyl]-acetamide] | 
380 | CS(=O)(=O)N1CCc2c(c(-c3ccc(C(F)(F)F)c(CNC(=O)CN4CCS(=O)(=O)CC4)c3)nn2CCCN2CCC(N3CCCC3=O)CC2)C1 [Example 162, 2-(1,1-Dioxo-1λ^6-thiomorpholin-4-yl)-N-[5-(5-methanesulfonyl-1-{3-[4-(2-oxo-pyrrolidin-1-yl)-piperidin-1-yl]-propyl}-4,5,6,7-tetrahydro-1H-pyrazolo[4,3-c]pyridin-3-yl)-2-trifluoromethyl-benzyl]-acetamide] | 
4150 | CS(=O)(=O)N1CCc2c(c(-c3ccc(C(F)(F)F)c(CNc4nc5ccccc5[nH]4)c3)nn2CC(O)CN2CCC(N3CCCC3=O)CC2)C1 (centres unmarked) [Example 175, 1-{1-[3-(3-{3-[(1H-Benzoimidazol-2-ylamino)-methyl]-4-trifluoromethyl-phenyl}-5-methanesulfonyl-4,5,6,7-tetrahydro-pyrazolo[4,3-c]pyridin-1-yl)-2-hydroxy-propyl]-piperidin-4-yl}-pyrrolidin-2-one] | 
